# Experimental data published in US11229664B2, “Treatment of myelosuppression” (priority 2012, dated 2022).
# “And” between values parts separate entries of the source, which are not always exact repeats. Identical values can stand only once.
# Experiments:
# [1] = tested on: metastatic adenocarcinoma of the pancreas; experiment: Clinical trial: tumor response and disease status (RECIST 1.1), ECOG performance status; type: in vivo, human
# Protocol: Treatment consisted of a series of 28-day cycles, wherein the last day of one cycle (e.g., day 28, cycle 1) was immediately followed by the first day of the next cycle (e.g., day 1, cycle 2). In each 28-day treatment cycle, patients were dosed at days 1, 8, and 15 (three weeks of medication followed by one week of rest) as follows. First, nab-paclitaxel at 125 mg/m^2 was administered as an intravenous infusion over 30 minutes. […] Nab-paclitaxel and gemcitabine therapy was given as described in the prescribing information for Abraxane® and Gemzar®. See also, Von Hoff et al., 2011, J. Clinical Oncology 29:1-7).
# As a substantially non-anticoagulant heparinoid, ODSH can be administered at a dose that is greater than the fully anticoagulant dose of unfractionated heparin, without concern for anticoagulant effect, as shown in the Results below.
# Blood samples were also tested on day 1 of each treatment cycle for the serum level of CA19-9 (carbohydrate antigen 19-9) a marker used to assess the efficacy of the chemotherapy agents in treating pancreatic cancer. See. e.g., Maeda, 2011, Int. J. Clin. Oncol. 16(5):539-45. Reduction in the serum level of CA19-9 is indicative of chemotherapeutic efficacy against the pancreatic cancer. Tumor response and disease status was measured according to Response Evaluation Criteria in Solid Tumors (RECIST) Guidelines Version 1.1. Eur. J. Cancer, 2009, 45:228-247. A reduction of at least 30% in the sum of the diameters of target lesions (measurable lesions present at screening, up to 2 lesions per involved organ) was scored as a partial response. Patients were scored as having stable disease where the smallest sum of target lesion diameters neither decreased nor increased sufficiently to qualify as a partial response or progressive disease.
# [2] = type: in vivo, human; settings: ODSH adjunct to gemcitabine/nab-paclitaxel
# Protocol: Patients were also assessed for other side effects of chemotherapy, including fatigue, sensory neuropathy, nausea, and vomiting, each of which was graded according to severity. Grades were: 0 (normal), 1 (mild), 2 (moderate), 3 (severe) and 4 (life-threatening).
# [3] = tested on: BxPC-3 pancreas tumor cell line; experiment: BxPC-3 human pancreas tumor xenograft model: tumor weight, tumor growth inhibition (TGI); type: in vivo, female athymic nude mice; settings: for Tumor weight, Mean / Tumor weight, Median / Tumor weight, individual mice: Group 2: ODSH 24 mg/kg BID, IV Days 1-11, SC Days 12-end
# Protocol: Compounds tested in the experiment were as follows. ODSH was made by Pyramid Laboratories, Inc. (Costa Mesa, Calif.). ODSH was provided at a stock concentration of 50 mg/ml and stored at room temperature until use. ODSH was diluted in a 0.9% NaCl solution (B. Braun Medical Inc., Irvine, Calif.) to a concentration of 2.4 mg/ml to deliver 24 mg/kg, in a 10 ml/kg dose volume when administered intravenously. A concentration of 4.8 mg/ml was formulated to deliver a 24 mg/kg dose at a 5 ml/kg dose volume when administered subcutaneously. ODSH was formulated fresh prior to each dose.
# Nab-paclitaxel was manufactured by Abraxis BioScience LLC (Bridgewater, N.J.) and diluted in a 0.9% NaCl solution to a concentration of 1.5 mg/ml to deliver 15 mg/kg, in a 10 ml/kg dose volume. All standard agent preparations were made fresh prior to their administration.
# BxPC-3 cells were obtained and prepared as follows. The BxPC-3 pancreas tumor cell line was received from American Type Culture Collection (ATCC, Manassas, Va.). Cultures were maintained in RPMI 1640 medium (Hyclone, Logan, Utah) supplemented with 5% fetal bovine serum. The cells were housed in a 5% CO2 atmosphere. The cultures were expanded in tissue culture flasks at a 1:3 split ratio until a sufficient amount of cells were harvested.
# BxPC-3 Human Pancreas Tumor Xenograft Model: Female athymic nude mice per treatment condition were inoculated subcutaneously in the right flank with 0.1 ml of a 50% RPMI 1640/50% Matrigel™ (BD Biosciences, Bedford, Mass.) mixture containing a suspension of BxPC-3 tumor cells (approximately 5×10^6 cells/mouse).
# Study Director V.1.7.54k (Study Log).
# Mean tumor growth inhibition (TGI) was calculated utilizing Formula A below (deaths were not included in the TGI calculations).
# All statistical analyses in the xenograft study were performed with GraphPad Prism® v4 software.
# [4] = ten patients, ODSH adjunct to gemcitabine/nab-paclitaxel
# [5] = ANOVA with Tukey's Multiple Comparison Test, BxPC-3 xenograft
substance,measurement,setting,value
"substantially 2-O, 3-O desulfated heparin [ODSH]",ECOG Performance status,"[1]; 7 evaluable patients, after 8 weeks in the trial (day 1 of cycle 3)",stable or improved
same,Patients with clinical or radiographic evidence of progressive disease,[1]; after three or four full cycles of treatment,no patient
same,Patients with partial response (RECIST),[1]; [4],5 patients
same,Patients with stable disease (RECIST),[1]; [4],5 patients
same,"Patients experiencing no more than Grade 1 side effects (fatigue, sensory neuropathy, nausea, vomiting)",[2],more than 50%
same,"Difference in tumor weight compared to vehicle control, Day 26",[3]; [5],No significant difference
same,"Difference in tumor weight compared to vehicle control, Day 36",[3]; [5],significant difference
same,"Tumor weight, Mean",[3]; Day 1,122.4 mg
same,"Tumor weight, Median",[3]; Day 1,22.9 mg
same,"Tumor weight, individual mice",[3]; Day 1,114 mg and 116 mg and 172 mg and 94 mg and 131 mg and 106 mg and 125 mg and 143 mg and 129 mg and 140 mg
same,"Tumor weight, Mean",[3]; Day 4,134.0 mg
same,"Tumor weight, Median",[3]; Day 4,28.6 mg
same,"Tumor weight, individual mice",[3]; Day 4,98 mg and 110 mg and 141 mg and 97 mg and 181 mg and 135 mg and 130 mg and 144 mg and 133 mg
same,"Tumor weight, Mean",[3]; Day 8,146.0 mg
same,"Tumor weight, Median",[3]; Day 8,40.4 mg
same,"Tumor weight, individual mice",[3]; Day 8,118 mg and 144 mg and 183 mg and 125 mg and 222 mg and 126 mg and 155 mg and 157 mg and 148 mg
same,"Tumor weight, Mean",[3]; Day 11,187.6 mg
same,"Tumor weight, Median",[3]; Day 11,162.1 mg
same,"Tumor weight, individual mice",[3]; Day 11,288 mg and 142 mg and 175 mg and 243 mg and 146 mg and 252 mg and 137 mg and 140 mg and 203 mg
same,"Tumor weight, Mean",[3]; Day 15,263.0 mg
same,"Tumor weight, Median",[3]; Day 15,250.0 mg
same,"Tumor weight, individual mice",[3]; Day 15,340 mg and 224 mg and 263 mg and 348 mg and 237 mg and 321 mg and 208 mg and 218 mg and 264 mg
same,"Tumor weight, Mean",[3]; Day 18,338.5 mg
same,"Tumor weight, Median",[3]; Day 18,304.7 mg
same,"Tumor weight, individual mice",[3]; Day 18,489 mg and 291 mg and 288 mg and 419 mg and 256 mg and 415 mg and 318 mg and 278 mg and 352 mg
same,"Tumor weight, Mean",[3]; Day 22,453.8 mg
same,"Tumor weight, Median",[3]; Day 22,425.4 mg
same,"Tumor weight, individual mice",[3]; Day 22,622 mg and 360 mg and 400 mg and 556 mg and 402 mg and 551 mg and 449 mg and 326 mg and 515 mg
same,"Tumor weight, Mean",[3]; Day 26,616.2 mg
same,"Tumor weight, Median",[3]; Day 26,551.3 mg
same,"Tumor weight, individual mice",[3]; Day 26,894 mg and 478 mg and 529 mg and 770 mg and 573 mg and 724 mg and 524 mg and 394 mg and 766 mg
same,"TGI (mean tumor growth inhibition), Day 26","[3]; Day 26 vs Day 1, compared to vehicle control, BxPC-3 xenograft, ODSH 24 mg/kg BID, oxaliplatin 10 mg/kg, gemcitabine 80 mg/kg (Table 1)",11.5%
same,"Tumor weight, Mean",[3]; Day 30,882.3 mg
same,"Tumor weight, Median",[3]; Day 30,856.4 mg
same,"Tumor weight, individual mice",[3]; Day 30,"1,083 mg and 756 mg and 893 mg and 1,201 mg and 820 mg and 945 mg and 764 mg and 555 mg and 1,109 mg"
same,"Tumor weight, Mean",[3]; Day 33,"1,038.6 mg"
same,"Tumor weight, Median",[3]; Day 33,979.8 mg
same,"Tumor weight, individual mice",[3]; Day 33,"1,218 mg and 999 mg and 961 mg (2×) and 1,309 mg and 1,087 mg and 871 mg and 733 mg and 1,340 mg"
same,"Tumor weight, Median",[3]; Day 36,"1,151.5 mg"
same,"Tumor weight, individual mice",[3]; Day 36,"1,450 mg and 1,153 mg and 1,150 mg (2×) and 1,654 mg and 1,376 mg and 1,037 mg and 836 mg and 1,823 mg"
same,"TGI (mean tumor growth inhibition), Day 36","[3]; Day 36 vs Day 1, compared to vehicle control, BxPC-3 xenograft, ODSH 24 mg/kg BID, oxaliplatin 10 mg/kg, gemcitabine 80 mg/kg, nab-paclitaxel 15 mg/kg (Table 1)",18.2%
same,Day 26 Tumor Weight,"[3]; Table 14, treatment administered until Day 26",616.2 ± 50.9 mg
same,Day 26 Tumor Weight,"[3]; Table 15, treatment administered until Day 35",1270.1 ± 95.5 mg
